Read-outs that look alike come from different tables or passages of the source.
What was measured:
VqmA [1] = biological target: T1, VqmA (Vibrio cholerae, UniProt A0A0F0AZW0); assay: biochemical
Target sequence in this assay (A0A0F0AZW0 1-246 limits assumed): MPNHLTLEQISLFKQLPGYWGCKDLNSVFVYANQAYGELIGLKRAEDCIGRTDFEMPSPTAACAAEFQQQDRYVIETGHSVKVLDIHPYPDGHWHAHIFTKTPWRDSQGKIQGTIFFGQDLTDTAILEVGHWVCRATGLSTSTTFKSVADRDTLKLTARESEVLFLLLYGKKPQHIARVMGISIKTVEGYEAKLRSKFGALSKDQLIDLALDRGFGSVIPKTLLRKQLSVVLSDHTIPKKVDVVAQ

VqmA [2] = biological target: T1, VqmA; assay: biochemical; remark: listed apart in the source
Target sequence in this assay (A0A0F0AZW0 1-246): as the sequence (A0A0F0AZW0 1-246 limits assumed) above

| Compound | Kd (VqmA [1]) [µM] | Kd (VqmA [2]) [µM] |
| --- | --- | --- |
| C[C@H]1NC(C)(C)CNC1=O [compound 1, (R)-3,5,5-trimethylpiperazin-2-one] | 10.3 ± 3.1 | – |
| CC1NC(C)(C)CNC1=O (stereo not drawn) [compound 2, 3,5,5-trimethylpiperazin-2-one] | 7 ± 3.1 | – |
| Cc1cnc(O)cn1 [compound 5, 5] | – | 6 ± 1 |
